Reference: patent publication US7375222B2, “2,4,6-Triamino-1,3,5-triazine derivative” (Astellas Pharma Inc., priority 2002, dated 2008)
Structures can show the parent of a compound that is named as a salt.

Tests used:
BEC 1 potassium channel = molecular target: T1, BEC 1 potassium channel (Homo sapiens, UniProt Q9ULD8); assay: BEC 1 inhibitory activity using released amount of 86Rb ions from BEC 1-expressing cells; assay type: cell-based; conditions: 86Rb ion release; for IC50: BEC 1-stably expressing CHO (dhfr-deficient) cell, 100 mM KCl stimulation, read-out: BEC1 IC50; for Inhibition ratio: concentration of test compound is 3 μM
T1 construct: expressed in transfected cells
T1 sequence (Q9ULD8 1-1083): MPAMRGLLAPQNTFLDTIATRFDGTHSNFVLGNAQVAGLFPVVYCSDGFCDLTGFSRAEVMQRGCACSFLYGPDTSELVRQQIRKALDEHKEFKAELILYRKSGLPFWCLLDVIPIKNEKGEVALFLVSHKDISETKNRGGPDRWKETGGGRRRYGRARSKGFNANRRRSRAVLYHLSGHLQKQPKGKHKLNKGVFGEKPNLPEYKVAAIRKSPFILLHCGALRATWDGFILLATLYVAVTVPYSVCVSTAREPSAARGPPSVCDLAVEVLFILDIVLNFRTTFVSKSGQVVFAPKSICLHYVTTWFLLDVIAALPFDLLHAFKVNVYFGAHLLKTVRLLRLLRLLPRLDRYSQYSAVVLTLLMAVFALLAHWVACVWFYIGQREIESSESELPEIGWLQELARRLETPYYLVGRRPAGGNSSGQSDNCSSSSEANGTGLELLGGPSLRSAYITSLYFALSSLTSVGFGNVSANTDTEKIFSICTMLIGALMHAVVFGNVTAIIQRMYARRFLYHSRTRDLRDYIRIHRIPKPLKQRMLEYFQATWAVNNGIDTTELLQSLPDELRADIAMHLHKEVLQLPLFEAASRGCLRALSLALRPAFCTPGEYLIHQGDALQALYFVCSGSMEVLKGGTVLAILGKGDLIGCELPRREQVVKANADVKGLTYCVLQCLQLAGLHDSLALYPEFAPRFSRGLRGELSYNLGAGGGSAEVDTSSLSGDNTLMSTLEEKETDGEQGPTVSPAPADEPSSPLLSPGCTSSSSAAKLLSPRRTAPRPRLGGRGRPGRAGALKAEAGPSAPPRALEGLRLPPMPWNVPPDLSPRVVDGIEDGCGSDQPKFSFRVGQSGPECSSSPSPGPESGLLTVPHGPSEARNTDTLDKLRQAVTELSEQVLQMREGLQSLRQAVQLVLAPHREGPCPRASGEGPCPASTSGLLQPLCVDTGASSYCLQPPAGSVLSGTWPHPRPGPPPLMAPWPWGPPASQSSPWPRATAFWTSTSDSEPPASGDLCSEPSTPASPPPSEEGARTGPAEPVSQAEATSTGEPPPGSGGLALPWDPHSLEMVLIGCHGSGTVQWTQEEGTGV
Experimental: In general, the potassium channel can pass Rb^+ ion similar to K^+ ion, so that the channel activity can be measured using release of a radioisotope ^86Rb^+ as a marker. By incubating cells expressing the novel potassium channel protein together with ^86RbCl (e.g., 18 hr, 37° C.), ^86Rb^+ can be incorporated into the cells. The cells are washed with a low K^+ concentration physiological saline (e.g., 4.5 mM K^+) and then suspended in the same solution. When a high K^+ concentration solution (e.g., 100 mM in final concentration) is added to the cell suspension, membrane potential of the cell is depolarized and the potassium channel therefore is activated. As a result, the intracellular ^86Rb^+ is released into the extracellular part, thus radioactivity of the extracellular solution can be used as a marker of the channel activity. It is possible to screen a compound and a peptide capable of modifying activity of the BEC 1 potassium channel protein, by comparing the radioactivity released into the extracellular part when the high K^+ concentration solution is added in the presence and absence of each drug to be tested.
Method for Measuring BEC 1 Inhibitory Activity of Compounds Using Released Amount of ^86Rb ions as the Index
The channel activity of BEC 1 was measured in accordance with the method described in WO 99/37677, using amount of a radioisotope ^86Rb ion released from a BEC 1-expressing cell as the index. That is, when an ^86Rb ion-incorporated BEC 1-expressing cell was stimulated with 100 mM KCl, the radioactivity released from the cell was used as the channel activity of BEC 1. The ^86Rb ions were incorporated into a BEC 1-stably expressing cell by culturing the cell (3 hours, 37° C.) in the presence of ^86RbCl (0.5 μCi/ml), and the un-incorporated ^86Rb ions were removed by washing three times with HEPES-buffered saline (pH 7.4, 2.5 mM KCl). The cells were incubated with HEPES-buffered saline containing a compound to be tested at room temperature for 15 minutes and then further incubated with 100 mM KCl-containing HEPES-buffered saline (pH 7.4) containing the compound to be tested at room temperature for 5 minutes. The extracellular medium was recovered, and then the remaining cells were lysed with 0.1 N NaOH and recovered.
The Cerenkov radioactivity of the extracellular medium and cell lysate was respectively measured, and their total was used as the total radioactivity. The released amount of ^86Rb ions was expressed by the percentage of extracellular medium radioactivity based on the total radioactivity. The value obtained in the presence of the compound was used as a test value, and the value obtained in the absence of the compound as a control value and the value obtained when not stimulated with 100 mM KCl as a blank value. Inhibitory action of each compound was expressed by % inhibition, namely (control value−test value)×100/(control value−blank value), or by an IC50 value calculated from the % inhibition. As the test results of typical compounds are shown in the following Tables 2 and 3, it was confirmed that said compounds have the BEC 1 potassium channel inhibitory action.
In this connection, as the BEC 1-expressing cell, a BEC 1-stably expressing cell prepared in accordance with the method described in WO 99/37677 using a dihydrofolate reductase (dhfr)-deficient strain of a Chinese hamster ovary cell was used.

Row | Molecule | IC50 (BEC 1 potassium channel) | also measured
1 | COc1ccc(Nc2nc(Nc3ccccc3)nc(NC(C)C)n2)cc1 (as salt: HCl) (hydrate or solvate) [Ex 48] |  | melting point: 174 to 177 °C
2 | CONc1nc(Nc2ccccc2)nc(Nc2ccc(F)cc2)n1 (as salt: HCl) (hydrate or solvate) [Example 789] |  | melting point: 140 to 141 °C
3 | CCONc1nc(Nc2ccccc2)nc(Nc2ccc(F)cc2)n1 (as salt: HCl) (hydrate or solvate) [Example 790] |  | melting point: 141 to 143 °C
4 | O=C1OCCC1CNc1nc(Nc2ccccc2)nc(Nc2ccccc2)n1 (centres unmarked) (as salt: HCl) (hydrate or solvate) [compound 24] |  | melting point: 138 to 140 °C
5 | Fc1ccc(Nc2nc(NCc3ccccc3)nc(Nc3ccc(F)cc3)n2)cc1 (as salt: HCl) (hydrate or solvate) [compound 28] |  | melting point: 176 to 178 °C
6 | Fc1ccc(Nc2nc(NCC3CCCO3)nc(Nc3ccc(F)cc3)n2)cc1 (centres unmarked) (as salt: HCl) (hydrate or solvate) [compound 36] |  | melting point: 171 to 174 °C
7 | CC(C)Nc1nc(Nc2ccccc2)nc(Nc2ccc(Cl)cc2)n1 (as salt: HCl) [Ex 46] |  | melting point: 201 to 203 °C
8 | CC(C)Nc1nc(Nc2ccccc2)nc(Nc2ccc(Cl)cc2)n1 [Ex 46] | 490 nM | 
9 | Cc1ccc(Nc2nc(Nc3ccccc3)nc(NC(C)C)n2)cc1 [Ex 47] | 720 nM | 
10 | COc1ccc(Nc2nc(Nc3ccccc3)nc(NC(C)C)n2)cc1 [Ex 48] | 290 nM | 
11 | CC(C)Nc1nc(Nc2ccccc2)nc(Nc2ccc(C(F)(F)F)cc2)n1 [Ex 49] | 140 nM | 
12 | [O-][n+]1ccc(CCNc2nc(Nc3ccccc3)nc(Nc3ccccc3)n2)cc1 [Example 740] | 4900 nM | 
13 | c1ccc(Nc2nc(NCC3CCOCC3)nc(Nc3ccccc3)n2)cc1 [Example 741] | 520 nM | 
14 | CC(CCCC(C)(C)O)Nc1nc(Nc2ccccc2)nc(Nc2ccccc2)n1 (centres unmarked) [Example 742] | 1400 nM | 
15 | Fc1ccc(Nc2nc(NCc3ccnc(F)c3)nc(Nc3ccc(F)cc3)n2)cc1 [Example 743] | 100 nM | 
16 | Nc1cc(CNc2nc(Nc3ccccc3)nc(Nc3ccc(F)cc3)n2)ccn1 [Example 747] | 3600 nM | 
17 | Fc1ccc(Nc2nc(NCc3ccco3)nc(Nc3ccccc3)n2)cc1 [Example 764] | 47 nM | 
18 | COCCNc1nc(Nc2ccccc2)nc(Nc2ccc(F)cc2)n1 [Example 771] | 250 nM | 
19 | OCCNc1nc(Nc2ccccc2)nc(Nc2ccc(F)cc2)n1 [Example 773] | 1500 nM | 
20 | OCCCNc1nc(Nc2ccccc2)nc(Nc2ccc(F)cc2)n1 [Example 774] | 550 nM | 
21 | OCCCCNc1nc(Nc2ccccc2)nc(Nc2ccc(F)cc2)n1 [Example 775] | 110 nM | 
22 | OCCCCCNc1nc(Nc2ccccc2)nc(Nc2ccc(F)cc2)n1 [Example 776] | 140 nM | 
23 | OCCOCCNc1nc(Nc2ccccc2)nc(Nc2ccc(F)cc2)n1 [Example 777] | 210 nM | 
24 | C[C@H](CO)Nc1nc(Nc2ccccc2)nc(Nc2ccc(F)cc2)n1 [Example 779] | 700 nM | 
25 | CONc1nc(Nc2ccccc2)nc(Nc2ccc(F)cc2)n1 [Example 789] | 9500 nM | 
26 | CCONc1nc(Nc2ccccc2)nc(Nc2ccc(F)cc2)n1 [Example 790] | 4700 nM | 
27 | CN(C)Nc1nc(Nc2ccccc2)nc(Nc2ccc(F)cc2)n1 [Example 791] | 2200 nM | 

Row | Molecule | IC50 (BEC 1 potassium channel) | also measured
28 | CCN(CC)CCCC(C)Nc1nc(Nc2ccccc2)nc(Nc2ccc(F)cc2)n1 (centres unmarked) [Example 794] | 3100 nM | 
29 | Fc1ccc(Nc2nc(NCc3ccnc(F)c3)nc(Nc3ccc(Cl)cc3)n2)cc1 [Example 797] | 650 nM | 
30 | COCCNc1nc(Nc2ccccc2)nc(Nc2ccc(OC)cc2)n1 [Example 808] | 420 nM | 
31 | Nc1cccc(CNc2nc(Nc3ccccc3)nc(Nc3ccc(F)cc3)n2)n1 [Example 819] | 1400 nM | 
32 | c1ccc(Nc2nc(NCc3ccncc3)nc(Nc3ccccc3)n2)cc1 [compound 1, N,N′-diphenyl-N″-(4-pyridylmethyl)-1,3,5-triazine-2,4,6-triamine] | 84 nM | 
33 | C#CCNc1nc(Nc2ccccc2)nc(Nc2ccccc2)n1 [compound 16] | 360 nM | 
34 | COCCCNc1nc(Nc2ccccc2)nc(Nc2ccccc2)n1 [compound 18] | 1100 nM | 
35 | CSCCCNc1nc(Nc2ccccc2)nc(Nc2ccccc2)n1 [compound 19] | 1300 nM | 
36 | OCCCNc1nc(Nc2ccccc2)nc(Nc2ccccc2)n1 [compound 21] | 590 nM | 
37 | OCCOCCNc1nc(Nc2ccccc2)nc(Nc2ccccc2)n1 [compound 23] | 240 nM | 
38 | O=C1OCCC1CNc1nc(Nc2ccccc2)nc(Nc2ccccc2)n1 (centres unmarked) [compound 24] | 480 nM | 
39 | Fc1ccc(Nc2nc(NCc3ccccc3)nc(Nc3ccc(F)cc3)n2)cc1 [compound 28] | 390 nM | 
40 | Fc1ccc(CNc2nc(Nc3ccc(F)cc3)nc(Nc3ccc(F)cc3)n2)cc1 [compound 29] | 350 nM | 
41 | Fc1ccc(Nc2nc(NCc3ccco3)nc(Nc3ccc(F)cc3)n2)cc1 [compound 30] | 73 nM | 
42 | Fc1ccc(Nc2nc(NCc3cccs3)nc(Nc3ccc(F)cc3)n2)cc1 [compound 31] | 490 nM | 
43 | COCCNc1nc(Nc2ccc(F)cc2)nc(Nc2ccc(F)cc2)n1 [compound 35] | 240 nM | 
44 | Fc1ccc(Nc2nc(NCC3CCCO3)nc(Nc3ccc(F)cc3)n2)cc1 (centres unmarked) [compound 36] | 480 nM | 
45 | OCCCCCNc1nc(Nc2ccc(F)cc2)nc(Nc2ccc(F)cc2)n1 [compound 37] | 260 nM | 
46 | OCCOCCNc1nc(Nc2ccc(F)cc2)nc(Nc2ccc(F)cc2)n1 [compound 38] | 180 nM | 
47 | COc1cccc(Nc2nc(Nc3cccc(OC)c3)nc(NC(C)C)n2)c1 [compound 40] | 630 nM | 
48 | CC(C)Nc1nc(Nc2ccc3c(c2)OCO3)nc(Nc2ccc3c(c2)OCO3)n1 [compound 41] | 400 nM | 
49 | CNc1nc(Nc2ccccc2)nc(Nc2ccccc2)n1 [compound 52] |  | Inhibition ratio (BEC 1 potassium channel): 31%
50 | CCNc1nc(Nc2ccccc2)nc(Nc2ccccc2)n1 [compound 53] |  | Inhibition ratio (BEC 1 potassium channel): 59%
51 | CCCNc1nc(Nc2ccccc2)nc(Nc2ccccc2)n1 [compound 54] |  | Inhibition ratio (BEC 1 potassium channel): 64%
52 | c1ccc(Nc2nc(Nc3ccccc3)nc(NC3CC3)n2)cc1 [compound 62] |  | Inhibition ratio (BEC 1 potassium channel): 44%
53 | N-isopropyl-N′,N″-bis(4-methoxyphenyl)-1,3,5-triazine-1,3,5-triamine hydrochloride [compound 39] | 660 nM | 
